Assays:
[1] = set-up: method as in Mostyn et al., 2019; conditions: ref Mostyn et al., 2019; cited from earlier work
GlyT1 WT = conditions: read-out: Glycine EC50, glycine transport
Protocol: Human GlyT1b or GlyT2a (herein referred to as GlyT1 and GlyT2) cDNA were sub-cloned into the plasmid oocyte transcription vector (pOTV). Site-directed mutagenesis was performed using traditional PCR techniques, and sequences confirmed by the Australian Genome Research Facility (Sydney, Australia). WT and mutant plasmid DNA were linearised with SpeI (New England Biolabs (Genesearch) Arundel, Australia) and RNA transcribed by T7 RNA polymerase using the mMessagemMachine kit (Ambion, TX, USA).
Oocytes were extracted from female Xenopus laevis frogs and detached from follicle cell containing lobes by digestion with 2 mg/mL collagenase A (Boehringer, Mannheim, Germany). Defoliculated stage V-VI oocytes were injected with 4.6 ng of cRNA encoding WT or mutant transporter (Drummond Nanoinject, Drummond Scientific Co., Broomall, PA, USA). Surgical proceedures have been approved by the University of Sydney Animal Ethics Committee (protocol 2016/970). […]
2–5 days following injection, glycine transport currents were measured at −60 mV using Geneclamp 500 amplifier (Axon Instruments, Foster City, CA, USA) with a Powerlab 2/20 chart recorder (ADInstruments, Sydney, Australia) and chart software (ADInstruments). All data were subsequently analysed using GraphPad Prism 7.02 (GraphPad Software, San Diego, CA). […]

[2] = tested on: GlyT2 F428A, V432A, Y550L, P561S, W563L and L569F mutants; experiment: Screen of GlyT2 point mutants for inhibition by 1 µM oleoyl L-carnitine; assay type: cell-based, human; conditions: range over F428A
Excerpt: The binding site for the allosteric serotonin reuptake inhibitor, (S)-citalopram, lies in the extracellular facing vestibule of SERT, formed by residues from TM1b, TM6a, TM10, and TM11 ([Coleman et al., 2016]). To determine if bioactive lipids inhibit GlyT2 by binding to this ‘vestibule allosteric site,’ corresponding residues in GlyT2 were mutated to remove potential interactions. OLCarn contains a bulky, zwitterionic head group conjugated to an oleoyl lipid tail, and was used as a screen to test mutant transporters for sensitivity to inhibition. None of the transporters containing mutations in the vestibule allosteric site display any change in inhibition compared to WT (Figure 1a). […] Mutations to GlyT2 residues were made either to resemble GlyT1, or to remove potential interactions with bioactive lipids but not disrupt the overall transport activity, often using substitutions present in the bacterial homologue, LeuT.
Figure 1. Defining the bioactive lipid binding site. (a) Inhibition of GlyT2 by 1 µM oleoyl L-carnitine. Transporters were WT or with mutations to the vestibule allosteric site (VAS) or adjacent to EL4. The reduced glycine transport currents were normalised to the current elicited by glycine alone. Data represented are means ± SEM with ****p<0.001 following a one way ANOVA test. […]

## oleoyl d-Lysine
[1]
  blood brain barrier permeability: blood brain barrier permeable

## NCC(=O)O [Glycine]
GlyT1 WT
  EC50: 14.4 ± 1.2 µM

## CCCCCCCC/C=C\CCCCCCCC(=O)O[C@H](CC(=O)[O-])C[N+](C)(C)C [oleoyl L-Carnitine, reference compound]
[2]
  inhibition of glycine transport current: 14.9–29.0%
